Experimental data published in the supplement of paper PMC12463676, “Small-molecule dissolution of stress granules by redox modulation benefits ALS models” (Nature Chemical Biology, 2025).

Columns and labels:
lipoamide = compound: NC(=O)CCCCC1CCSS1 [lipoamide]; test: thermal stability z-score vs DMSO; higher = more thermally stabilized by treatment; settings: HeLa, lipoamide concentration 100 µM
Protocol: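 Cellular thermal proteome profiling in HeLa cells. Cells were treated with 100 µM lipoamide for 1 h, with or without 1 mM arsenate for a further 1 h, then heated to ten temperatures (37-66.3 °C), and soluble protein was quantified by TMT mass spectrometry relative to 0.1% DMSO controls. The thermal stability score (sum of log2 fold changes minus the abundance score) was transformed to a z-score; mean of n = 3 experiments.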

potassium arsenate = compound: O=[As]([O-])(O)O.[K+] [potassium arsenate]; test: as above; settings: HeLa; arsenate concentration 1 mM
Protocol: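 Cellular thermal proteome profiling in HeLa cells treated with 1 mM arsenate for 1 h (DMSO pretreatment), heated to ten temperatures (37-66.3 °C). Soluble protein was quantified by TMT mass spectrometry relative to DMSO controls; the thermal stability score was transformed to a z-score; mean of n = 3 experiments.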

[1] = arsenate co-treatment: 1 mM arsenate 1 h
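Also: each temperature applied for 3 min, abundance score taken as mean log2 fold change at the two lowest temperatures, z-score obtained by mean subtraction and division by SD.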

TRMT1 (UniProt Q9NXH9)
thermal stability z-score (lipoamide; [1]): 0.222 | thermal stability z-score (lipoamide; arsenate co-treatment: none): -0.116 | thermal stability z-score (potassium arsenate): -0.423

GART (UniProt P22102)
Sequence of UniProt P22102 (P22102 whole entry): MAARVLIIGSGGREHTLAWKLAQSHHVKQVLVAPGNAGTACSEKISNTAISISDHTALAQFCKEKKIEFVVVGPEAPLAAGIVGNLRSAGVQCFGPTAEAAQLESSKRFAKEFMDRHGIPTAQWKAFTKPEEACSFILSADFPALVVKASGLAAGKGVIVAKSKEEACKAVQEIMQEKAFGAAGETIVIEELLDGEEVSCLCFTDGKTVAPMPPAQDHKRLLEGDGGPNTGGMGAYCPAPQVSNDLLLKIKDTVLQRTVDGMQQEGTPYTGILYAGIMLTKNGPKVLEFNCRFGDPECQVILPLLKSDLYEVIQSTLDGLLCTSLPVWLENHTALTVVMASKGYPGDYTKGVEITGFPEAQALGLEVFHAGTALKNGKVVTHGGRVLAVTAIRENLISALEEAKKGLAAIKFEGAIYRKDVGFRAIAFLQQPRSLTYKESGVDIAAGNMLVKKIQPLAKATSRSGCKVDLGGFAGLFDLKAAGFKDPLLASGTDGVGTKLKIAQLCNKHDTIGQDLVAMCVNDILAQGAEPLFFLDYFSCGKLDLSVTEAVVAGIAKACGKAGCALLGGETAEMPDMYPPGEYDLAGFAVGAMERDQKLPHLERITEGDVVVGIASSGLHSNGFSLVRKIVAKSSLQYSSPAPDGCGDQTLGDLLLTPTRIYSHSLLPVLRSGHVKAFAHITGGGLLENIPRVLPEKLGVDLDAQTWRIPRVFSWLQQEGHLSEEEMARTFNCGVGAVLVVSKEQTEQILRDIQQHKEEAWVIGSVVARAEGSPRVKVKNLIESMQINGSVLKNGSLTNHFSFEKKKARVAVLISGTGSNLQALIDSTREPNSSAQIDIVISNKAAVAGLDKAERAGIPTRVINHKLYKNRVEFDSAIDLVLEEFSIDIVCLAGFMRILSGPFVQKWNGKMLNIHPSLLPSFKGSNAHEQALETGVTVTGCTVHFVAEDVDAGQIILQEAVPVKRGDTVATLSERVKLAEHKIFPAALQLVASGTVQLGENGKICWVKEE
thermal stability z-score (lipoamide; [1]): 0.221 | thermal stability z-score (lipoamide; arsenate co-treatment: none): -0.0107 | thermal stability z-score (potassium arsenate): -0.419

LAMTOR1 (UniProt Q6IAA8)
thermal stability z-score (lipoamide; [1]): 1.14 | thermal stability z-score (lipoamide; arsenate co-treatment: none): 0.655 | thermal stability z-score (potassium arsenate): 0.827

RRP1 (UniProt P56182)
thermal stability z-score (lipoamide; [1]): 0.0258 | thermal stability z-score (lipoamide; arsenate co-treatment: none): 0.131 | thermal stability z-score (potassium arsenate): 0.671

SMARCC2 (UniProt Q8TAQ2)
thermal stability z-score (lipoamide; [1]): 1.35 | thermal stability z-score (lipoamide; arsenate co-treatment: none): 1.85 | thermal stability z-score (potassium arsenate): 0.305

MIEN1 (UniProt Q9BRT3)
thermal stability z-score (lipoamide; [1]): 0.165 | thermal stability z-score (lipoamide; arsenate co-treatment: none): -0.595 | thermal stability z-score (potassium arsenate): 0.969

AP3B1 (UniProt O00203)
Sequence of UniProt O00203 (O00203 whole entry): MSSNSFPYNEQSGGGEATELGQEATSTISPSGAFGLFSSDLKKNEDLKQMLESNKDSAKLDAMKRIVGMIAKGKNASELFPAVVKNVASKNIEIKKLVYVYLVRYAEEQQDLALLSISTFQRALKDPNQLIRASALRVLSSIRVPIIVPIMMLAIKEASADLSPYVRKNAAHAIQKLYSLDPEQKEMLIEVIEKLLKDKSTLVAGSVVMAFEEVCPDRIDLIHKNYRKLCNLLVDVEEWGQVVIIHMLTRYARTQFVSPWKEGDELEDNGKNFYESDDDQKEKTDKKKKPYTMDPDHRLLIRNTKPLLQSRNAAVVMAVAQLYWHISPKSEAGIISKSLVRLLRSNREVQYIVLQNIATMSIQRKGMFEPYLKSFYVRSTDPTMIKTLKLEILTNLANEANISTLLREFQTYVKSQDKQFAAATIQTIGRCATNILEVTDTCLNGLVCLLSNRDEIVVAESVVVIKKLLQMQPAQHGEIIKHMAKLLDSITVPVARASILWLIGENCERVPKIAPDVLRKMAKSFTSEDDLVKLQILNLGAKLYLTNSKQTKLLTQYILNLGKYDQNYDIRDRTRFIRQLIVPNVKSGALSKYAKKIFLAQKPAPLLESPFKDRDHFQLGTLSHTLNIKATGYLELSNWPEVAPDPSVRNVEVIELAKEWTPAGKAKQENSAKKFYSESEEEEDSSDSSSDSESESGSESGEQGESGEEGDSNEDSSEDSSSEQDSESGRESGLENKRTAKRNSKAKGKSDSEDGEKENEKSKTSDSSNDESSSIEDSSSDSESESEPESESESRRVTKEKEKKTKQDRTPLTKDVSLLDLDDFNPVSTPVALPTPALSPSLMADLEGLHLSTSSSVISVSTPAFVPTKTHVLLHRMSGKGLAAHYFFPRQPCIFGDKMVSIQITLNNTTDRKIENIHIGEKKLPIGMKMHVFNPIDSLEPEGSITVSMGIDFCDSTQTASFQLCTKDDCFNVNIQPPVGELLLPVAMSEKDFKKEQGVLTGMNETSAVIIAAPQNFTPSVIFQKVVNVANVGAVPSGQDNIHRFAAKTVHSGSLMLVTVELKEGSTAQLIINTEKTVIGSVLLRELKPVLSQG
thermal stability z-score (lipoamide; [1]): -0.0343 | thermal stability z-score (lipoamide; arsenate co-treatment: none): 0.0807 | thermal stability z-score (potassium arsenate): 0.404

TBC1D4 (UniProt O60343)
thermal stability z-score (lipoamide; [1]): -0.14 | thermal stability z-score (lipoamide; arsenate co-treatment: none): 0.292 | thermal stability z-score (potassium arsenate): 0.51

PPP1R11 (UniProt O60927)
Sequence of UniProt O60927 (O60927 whole entry): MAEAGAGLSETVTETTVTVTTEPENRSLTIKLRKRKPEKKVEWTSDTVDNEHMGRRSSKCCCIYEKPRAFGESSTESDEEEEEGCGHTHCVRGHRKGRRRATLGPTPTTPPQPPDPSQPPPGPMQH
thermal stability z-score (lipoamide; [1]): 0.0148 | thermal stability z-score (lipoamide; arsenate co-treatment: none): -0.832 | thermal stability z-score (potassium arsenate): -0.187

RPS9 (UniProt P46781)
thermal stability z-score (lipoamide; [1]): 0.28 | thermal stability z-score (lipoamide; arsenate co-treatment: none): 0.125 | thermal stability z-score (potassium arsenate): -1.03

SDR16C5 (UniProt Q8N3Y7)
thermal stability z-score (lipoamide; [1]): -0.26 | thermal stability z-score (lipoamide; arsenate co-treatment: none): -0.252 | thermal stability z-score (potassium arsenate): 0.0129

PGAM5 (UniProt Q96HS1)
thermal stability z-score (lipoamide; [1]): 0.0875 | thermal stability z-score (lipoamide; arsenate co-treatment: none): 0.709 | thermal stability z-score (potassium arsenate): 0.701

SLC25A17 (UniProt O43808)
thermal stability z-score (lipoamide; [1]): -0.416 | thermal stability z-score (lipoamide; arsenate co-treatment: none): -0.577 | thermal stability z-score (potassium arsenate): -0.824

CNOT11 (UniProt Q9UKZ1)
thermal stability z-score (lipoamide; [1]): -0.0705 | thermal stability z-score (lipoamide; arsenate co-treatment: none): 0.0824 | thermal stability z-score (potassium arsenate): 0.0729

TMED5 (UniProt Q9Y3A6)
thermal stability z-score (lipoamide; [1]): -1.78 | thermal stability z-score (lipoamide; arsenate co-treatment: none): -1.51 | thermal stability z-score (potassium arsenate): 0.321

BCL7B (UniProt Q9BQE9)
thermal stability z-score (lipoamide; [1]): 3.46 | thermal stability z-score (lipoamide; arsenate co-treatment: none): 2.78 | thermal stability z-score (potassium arsenate): 0.537

POP7 (UniProt O75817)
thermal stability z-score (lipoamide; [1]): -0.211 | thermal stability z-score (lipoamide; arsenate co-treatment: none): 0.214 | thermal stability z-score (potassium arsenate): 0.592

BTN2A1 (UniProt Q7KYR7)
Sequence of UniProt Q7KYR7 (Q7KYR7 whole entry): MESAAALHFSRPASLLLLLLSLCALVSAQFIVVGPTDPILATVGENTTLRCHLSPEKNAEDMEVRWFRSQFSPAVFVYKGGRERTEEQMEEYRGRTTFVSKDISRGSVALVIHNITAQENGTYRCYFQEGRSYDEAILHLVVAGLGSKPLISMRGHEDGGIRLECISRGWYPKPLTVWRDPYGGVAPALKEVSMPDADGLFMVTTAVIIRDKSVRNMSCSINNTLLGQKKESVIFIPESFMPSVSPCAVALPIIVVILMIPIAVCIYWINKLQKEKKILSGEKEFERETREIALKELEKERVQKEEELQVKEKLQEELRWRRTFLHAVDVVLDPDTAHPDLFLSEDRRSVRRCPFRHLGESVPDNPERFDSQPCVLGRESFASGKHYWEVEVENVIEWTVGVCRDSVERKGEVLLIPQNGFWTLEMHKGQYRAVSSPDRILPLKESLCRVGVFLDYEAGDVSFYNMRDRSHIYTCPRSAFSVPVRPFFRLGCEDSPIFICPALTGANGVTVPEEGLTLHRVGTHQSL
thermal stability z-score (lipoamide; [1]): -0.659 | thermal stability z-score (lipoamide; arsenate co-treatment: none): -0.638 | thermal stability z-score (potassium arsenate): 0.0455

CDK2 (UniProt P24941)
thermal stability z-score (lipoamide; [1]): 1.12 | thermal stability z-score (lipoamide; arsenate co-treatment: none): 0.288 | thermal stability z-score (potassium arsenate): 0.48

PRPSAP1 (UniProt Q14558)
thermal stability z-score (lipoamide; [1]): 0.0495 | thermal stability z-score (lipoamide; arsenate co-treatment: none): -0.517 | thermal stability z-score (potassium arsenate): -0.858

PRRC1 (UniProt Q96M27)
thermal stability z-score (lipoamide; [1]): 0.101 | thermal stability z-score (lipoamide; arsenate co-treatment: none): 0.135 | thermal stability z-score (potassium arsenate): -0.142

DNAJB2 (UniProt P25686)
thermal stability z-score (lipoamide; [1]): 0.422 | thermal stability z-score (lipoamide; arsenate co-treatment: none): 0.0161 | thermal stability z-score (potassium arsenate): 0.142

SGTB (UniProt Q96EQ0)
thermal stability z-score (lipoamide; [1]): 0.0457 | thermal stability z-score (lipoamide; arsenate co-treatment: none): 0.112 | thermal stability z-score (potassium arsenate): -0.308

ITGB5 (UniProt P18084)
thermal stability z-score (lipoamide; [1]): -1.1 | thermal stability z-score (lipoamide; arsenate co-treatment: none): -0.661 | thermal stability z-score (potassium arsenate): 0.289

CUL5 (UniProt Q93034)
thermal stability z-score (lipoamide; [1]): 0.631 | thermal stability z-score (lipoamide; arsenate co-treatment: none): 0.636 | thermal stability z-score (potassium arsenate): 0.131

TWF1 (UniProt Q12792)
Sequence of UniProt Q12792 (Q12792 whole entry): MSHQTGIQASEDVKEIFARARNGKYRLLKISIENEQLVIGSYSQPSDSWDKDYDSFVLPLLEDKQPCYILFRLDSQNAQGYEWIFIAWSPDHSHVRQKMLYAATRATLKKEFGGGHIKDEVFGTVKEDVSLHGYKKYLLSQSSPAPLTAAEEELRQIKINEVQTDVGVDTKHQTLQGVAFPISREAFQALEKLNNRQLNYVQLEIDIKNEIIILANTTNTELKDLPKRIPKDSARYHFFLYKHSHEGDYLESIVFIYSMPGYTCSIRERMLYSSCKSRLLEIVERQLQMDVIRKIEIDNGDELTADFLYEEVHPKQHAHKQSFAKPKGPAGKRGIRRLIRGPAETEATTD
thermal stability z-score (lipoamide; [1]): 0.503 | thermal stability z-score (lipoamide; arsenate co-treatment: none): 0.245 | thermal stability z-score (potassium arsenate): -0.412

CXXC1 (UniProt Q9P0U4)
thermal stability z-score (lipoamide; [1]): -0.00204 | thermal stability z-score (lipoamide; arsenate co-treatment: none): 0.187 | thermal stability z-score (potassium arsenate): 0.00172

DCP1A (UniProt Q9NPI6)
Sequence of UniProt Q9NPI6 (Q9NPI6 whole entry): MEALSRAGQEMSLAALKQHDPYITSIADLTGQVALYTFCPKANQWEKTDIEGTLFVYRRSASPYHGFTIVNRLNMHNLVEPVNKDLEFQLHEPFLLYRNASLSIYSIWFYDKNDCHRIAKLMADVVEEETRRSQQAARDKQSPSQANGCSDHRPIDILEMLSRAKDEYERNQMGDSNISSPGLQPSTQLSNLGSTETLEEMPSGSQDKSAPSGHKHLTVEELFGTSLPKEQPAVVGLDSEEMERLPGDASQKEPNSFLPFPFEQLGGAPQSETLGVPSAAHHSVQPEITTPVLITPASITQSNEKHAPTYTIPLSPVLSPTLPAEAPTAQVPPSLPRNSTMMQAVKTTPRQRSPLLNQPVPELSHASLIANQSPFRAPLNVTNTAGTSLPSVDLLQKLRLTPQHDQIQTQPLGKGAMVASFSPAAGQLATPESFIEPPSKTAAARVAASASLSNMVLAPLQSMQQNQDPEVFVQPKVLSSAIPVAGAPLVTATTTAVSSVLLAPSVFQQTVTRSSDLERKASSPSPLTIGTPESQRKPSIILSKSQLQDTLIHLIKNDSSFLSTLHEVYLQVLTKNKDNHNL
thermal stability z-score (lipoamide; [1]): -0.2 | thermal stability z-score (lipoamide; arsenate co-treatment: none): -0.107 | thermal stability z-score (potassium arsenate): -0.248

TMEM131 (UniProt Q92545)
thermal stability z-score (lipoamide; [1]): -1.03 | thermal stability z-score (lipoamide; arsenate co-treatment: none): 0.061 | thermal stability z-score (potassium arsenate): 0.83

MID1IP1 (UniProt Q9NPA3)
thermal stability z-score (lipoamide; [1]): -0.135 | thermal stability z-score (lipoamide; arsenate co-treatment: none): 0.206 | thermal stability z-score (potassium arsenate): 0.151

EDEM2 (UniProt Q9BV94)
thermal stability z-score (lipoamide; [1]): 0.18 | thermal stability z-score (lipoamide; arsenate co-treatment: none): 0.234 | thermal stability z-score (potassium arsenate): 0.127

PLCD3 (UniProt Q8N3E9)
Sequence of UniProt Q8N3E9 (Q8N3E9 whole entry): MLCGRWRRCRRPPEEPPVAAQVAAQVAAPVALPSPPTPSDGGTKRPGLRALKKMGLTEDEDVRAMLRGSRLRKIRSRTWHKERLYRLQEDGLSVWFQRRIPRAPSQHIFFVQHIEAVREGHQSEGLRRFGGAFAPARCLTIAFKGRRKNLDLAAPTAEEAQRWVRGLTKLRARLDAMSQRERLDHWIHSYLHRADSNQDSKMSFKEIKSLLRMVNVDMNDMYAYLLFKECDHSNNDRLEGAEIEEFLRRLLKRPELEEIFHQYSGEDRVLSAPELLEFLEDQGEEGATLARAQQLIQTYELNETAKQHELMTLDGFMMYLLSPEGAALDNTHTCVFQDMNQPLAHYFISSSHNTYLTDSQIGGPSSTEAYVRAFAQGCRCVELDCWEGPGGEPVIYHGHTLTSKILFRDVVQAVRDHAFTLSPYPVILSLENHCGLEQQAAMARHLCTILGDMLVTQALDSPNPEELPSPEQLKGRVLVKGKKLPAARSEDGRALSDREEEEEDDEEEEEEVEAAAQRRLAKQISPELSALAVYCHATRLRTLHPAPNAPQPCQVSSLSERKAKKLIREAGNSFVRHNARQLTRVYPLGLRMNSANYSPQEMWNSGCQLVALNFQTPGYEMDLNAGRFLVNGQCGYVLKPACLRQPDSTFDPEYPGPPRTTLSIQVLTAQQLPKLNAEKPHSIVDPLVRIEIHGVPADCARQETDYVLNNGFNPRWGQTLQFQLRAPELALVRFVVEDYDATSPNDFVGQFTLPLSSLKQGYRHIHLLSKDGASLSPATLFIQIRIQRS
thermal stability z-score (lipoamide; [1]): 0.235 | thermal stability z-score (lipoamide; arsenate co-treatment: none): 0.151 | thermal stability z-score (potassium arsenate): 0.0088

AIMP2 (UniProt Q13155)
thermal stability z-score (lipoamide; [1]): -0.616 | thermal stability z-score (lipoamide; arsenate co-treatment: none): -0.263 | thermal stability z-score (potassium arsenate): 0.702

GALT (UniProt P07902)
Sequence of UniProt P07902 (P07902 whole entry): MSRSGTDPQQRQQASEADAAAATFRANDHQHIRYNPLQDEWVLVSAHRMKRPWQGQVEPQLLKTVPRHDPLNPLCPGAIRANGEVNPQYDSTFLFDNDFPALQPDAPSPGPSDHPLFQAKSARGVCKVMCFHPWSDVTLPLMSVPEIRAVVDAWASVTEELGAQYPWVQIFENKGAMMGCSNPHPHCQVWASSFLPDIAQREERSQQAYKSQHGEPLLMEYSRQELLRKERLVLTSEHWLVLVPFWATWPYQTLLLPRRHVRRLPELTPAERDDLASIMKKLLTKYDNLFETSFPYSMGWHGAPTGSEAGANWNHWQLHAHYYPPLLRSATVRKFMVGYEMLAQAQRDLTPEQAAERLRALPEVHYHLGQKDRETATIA
thermal stability z-score (lipoamide; [1]): -0.362 | thermal stability z-score (lipoamide; arsenate co-treatment: none): -0.325 | thermal stability z-score (potassium arsenate): 0.174

RBM47
thermal stability z-score (lipoamide; [1]): 0.133 | thermal stability z-score (lipoamide; arsenate co-treatment: none): -0.661 | thermal stability z-score (potassium arsenate): -0.629

FASN (UniProt P49327)
thermal stability z-score (lipoamide; [1]): 0.217 | thermal stability z-score (lipoamide; arsenate co-treatment: none): 0.252 | thermal stability z-score (potassium arsenate): -1.1

DMXL2 (UniProt Q8TDJ6)
thermal stability z-score (lipoamide; [1]): -0.191 | thermal stability z-score (lipoamide; arsenate co-treatment: none): -0.105 | thermal stability z-score (potassium arsenate): 0.00642

NR2C2AP (UniProt Q86WQ0)
thermal stability z-score (lipoamide; [1]): -0.149 | thermal stability z-score (lipoamide; arsenate co-treatment: none): -0.255 | thermal stability z-score (potassium arsenate): 0.17

RHOF (UniProt Q9HBH0)
thermal stability z-score (lipoamide; [1]): 0.288 | thermal stability z-score (lipoamide; arsenate co-treatment: none): 0.301 | thermal stability z-score (potassium arsenate): 0.478

DOCK10 (UniProt Q96BY6)
thermal stability z-score (lipoamide; [1]): -0.106 | thermal stability z-score (lipoamide; arsenate co-treatment: none): -0.259 | thermal stability z-score (potassium arsenate): 0.0405

TUBGCP6 (UniProt Q96RT7)
thermal stability z-score (lipoamide; [1]): 0.0893 | thermal stability z-score (lipoamide; arsenate co-treatment: none): 0.0666 | thermal stability z-score (potassium arsenate): 0.0497

TTN (UniProt Q8WZ42)
thermal stability z-score (lipoamide; [1]): 0.609 | thermal stability z-score (lipoamide; arsenate co-treatment: none): 0.578 | thermal stability z-score (potassium arsenate): 0.121

GOT2 (UniProt P00505)
thermal stability z-score (lipoamide; [1]): 0.218 | thermal stability z-score (lipoamide; arsenate co-treatment: none): 0.18 | thermal stability z-score (potassium arsenate): -0.0952

SULT1A4|SULT1A3
thermal stability z-score (lipoamide; [1]): -0.787 | thermal stability z-score (lipoamide; arsenate co-treatment: none): 0.186 | thermal stability z-score (potassium arsenate): 1.16

MACF1
thermal stability z-score (lipoamide; [1]): -0.0421 | thermal stability z-score (lipoamide; arsenate co-treatment: none): -0.0441 | thermal stability z-score (potassium arsenate): -0.308

FAM96B (UniProt Q9Y3D0)
Sequence of UniProt Q9Y3D0 (Q9Y3D0 whole entry): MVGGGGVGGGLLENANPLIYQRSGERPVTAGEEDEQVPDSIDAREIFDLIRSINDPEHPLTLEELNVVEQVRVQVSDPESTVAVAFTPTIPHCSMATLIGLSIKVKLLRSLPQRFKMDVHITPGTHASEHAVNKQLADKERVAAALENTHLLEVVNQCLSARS
thermal stability z-score (lipoamide; [1]): -0.113 | thermal stability z-score (lipoamide; arsenate co-treatment: none): -0.0578 | thermal stability z-score (potassium arsenate): -0.128

PCBP1 (UniProt Q15365)
thermal stability z-score (lipoamide; [1]): -0.057 | thermal stability z-score (lipoamide; arsenate co-treatment: none): 0.0883 | thermal stability z-score (potassium arsenate): -1.31

MAP1S (UniProt Q66K74)
thermal stability z-score (lipoamide; [1]): -0.223 | thermal stability z-score (lipoamide; arsenate co-treatment: none): -0.342 | thermal stability z-score (potassium arsenate): -0.318

PIK3R4 (UniProt Q99570)
thermal stability z-score (lipoamide; [1]): -0.524 | thermal stability z-score (lipoamide; arsenate co-treatment: none): -0.155 | thermal stability z-score (potassium arsenate): 0.184

UQCRC1 (UniProt P31930)
thermal stability z-score (lipoamide; [1]): 1.43 | thermal stability z-score (lipoamide; arsenate co-treatment: none): 0.508 | thermal stability z-score (potassium arsenate): -1.38

ADRM1 (UniProt Q16186)
thermal stability z-score (lipoamide; [1]): 1.21 | thermal stability z-score (lipoamide; arsenate co-treatment: none): 0.976 | thermal stability z-score (potassium arsenate): 0.823

NT5C2 (UniProt P49902)
thermal stability z-score (lipoamide; [1]): 0.892 | thermal stability z-score (lipoamide; arsenate co-treatment: none): -0.608 | thermal stability z-score (potassium arsenate): -0.0391

MVD (UniProt P53602)
thermal stability z-score (lipoamide; [1]): 0.0441 | thermal stability z-score (lipoamide; arsenate co-treatment: none): -0.0153 | thermal stability z-score (potassium arsenate): -0.0067

SERPINB4 (UniProt P48594)
thermal stability z-score (lipoamide; [1]): 0.303 | thermal stability z-score (lipoamide; arsenate co-treatment: none): 0.197 | thermal stability z-score (potassium arsenate): -0.0226

GINS1 (UniProt Q14691)
thermal stability z-score (lipoamide; [1]): -0.512 | thermal stability z-score (lipoamide; arsenate co-treatment: none): -0.399 | thermal stability z-score (potassium arsenate): -0.404
